Measurements as given in ChEMBL document CHEMBL1157036, “QSPR modeling of octanol/water partition coefficient of antineoplastic agents by balance of correlations” (Eur J Med Chem, 2010).

Legend:
physchem = conditions: octanol/water
Description: (§1) Octanol-water partition coefficient, log P of the compound

[1] = octanol/water
Description: as §1

Compound `O=P1(N(CCCl)CCCl)NCCCO1` (configuration not stated) [CYCLOPHOSPHAMIDE ANHYDROUS] has a logP (physchem) of 0.8.

Compound `O=P1(NCCCl)OCCCN1CCCl` (configuration not stated) [IFOSFAMIDE] has a logP (physchem) of 0.8.

Work on `Sc1ncnc2nc[nH]c12` [MERCAPTOPURINE ANHYDROUS] yielded a logP (physchem) of -0.4.

`CCCCC(=O)OCC(=O)[C@]1(O)Cc2c(O)c3c(c(O)c2[C@@H](O[C@H]2C[C@H](NC(=O)C(F)(F)F)[C@H](O)[C@H](C)O2)C1)C(=O)c1c(OC)cccc1C3=O` [VALRUBICIN] showed a logP (physchem) of 2.2.

Work on `CC(=O)[C@]1(O)Cc2c(O)c3c(c(O)c2[C@@H](O[C@H]2C[C@H](N)[C@H](O)[C@H](C)O2)C1)C(=O)c1ccccc1C3=O` [IDARUBICIN] yielded a logP (physchem) of 0.2.

In the case of `Nc1ccn([C@@H]2O[C@H](CO)[C@@H](O)C2(F)F)c(=O)n1` [GEMCITABINE], the logP (physchem) is reported as -1.4.

With `CCC1=C[C@@H]2CN(C1)Cc1c([nH]c3ccccc13)[C@@](C(=O)OC)(c1cc3c(cc1OC)N(C)[C@H]1[C@@](O)(C(=O)OC)[C@H](OC(C)=O)[C@]4(CC)C=CCN5CC[C@]31[C@@H]54)C2` [VINORELBINE] the logP (physchem) was 4.

In the case of `Nc1nc2[nH]cc(CCc3ccc(C(=O)N[C@@H](CCC(=O)O)C(=O)O)cc3)c2c(=O)[nH]1` [PEMETREXED], the logP [1] is reported as -1.5.

`N[C@@H](Cc1ccc(N(CCCl)CCCl)cc1)C(=O)O` gave a logP (physchem) of 0.4.

Work on `COC(=O)CCC(=O)CN` [METHYL AMINOLEVULINATE] yielded a logP (physchem) of -1.2.

`OC[C@H]1O[C@@H](n2cnc3c2NC=NC[C@H]3O)C[C@@H]1O` [PENTOSTATIN] gave a logP (physchem) of -1.1.

`Nc1nc(Cl)nc2c1ncn2[C@@H]1O[C@H](CO)[C@@H](O)[C@@H]1F` [CLOFARABINE] showed a logP (physchem) of 0.

Compound `COc1cc([C@@H]2c3cc4c(cc3[C@@H](O[C@@H]3O[C@@H]5CO[C@@H](c6cccs6)O[C@H]5[C@H](O)[C@H]3O)[C@H]3COC(=O)[C@H]23)OCO4)cc(OC)c1O` [TENIPOSIDE] has a logP [1] of 1.5.

Work on `Nc1nc(F)nc2c1ncn2[C@@H]1O[C@H](CO)[C@@H](O)[C@@H]1O` [FLUDARABINE] yielded a logP (physchem) of -2.8.

Compound `CS(=O)(=O)OCCCCOS(C)(=O)=O` [BUSULFAN] has a logP (physchem) of -0.3.

With `COc1cc(NS(C)(=O)=O)ccc1Nc1c2ccccc2nc2ccccc12` [AMSACRINE] the logP (physchem) was 3.8.

Work on `Cn1nnc2c(C(N)=O)ncn2c1=O` [TEMOZOLOMIDE] yielded a logP [1] of -2.8.

For `CC[C@]1(O)C[C@@H]2CN(CCc3c([nH]c4ccccc34)[C@@](C(=O)OC)(c3cc4c(cc3OC)N(C)[C@H]3[C@@](O)(C(N)=O)[C@H](O)[C@]5(CC)C=CCN6CC[C@]43[C@@H]65)C2)C1` [VINDESINE], the logP (physchem) was 2.9.

With `O=c1[nH]cc(F)c(=O)[nH]1` [FLUOROURACIL] the logP (physchem) was -0.8.

Work on `COc1cccc2c1C(=O)c1c(O)c3c(c(O)c1C2=O)C[C@@](O)(C(=O)CO)C[C@@H]3O[C@H]1C[C@H](N)[C@H](O)[C@H](C)O1` [DOXORUBICIN] yielded a logP (physchem) of -0.5.

`CN(C)/N=N/c1[nH]cnc1C(N)=O` [DACARBAZINE] showed a logP [1] of -1.6.

`O=C(O)CCCc1ccc(N(CCCl)CCCl)cc1` [CHLORAMBUCIL] showed a logP (physchem) of 3.9.

For `CN(Cc1cnc2nc(N)nc(N)c2n1)c1ccc(C(=O)N[C@@H](CCC(=O)O)C(=O)O)cc1` [METHOTREXATE], the logP (physchem) was -2.2.

With `CC[C@]1(O)C[C@@H]2CN(CCc3c([nH]c4ccccc34)[C@@](C(=O)OC)(c3cc4c(cc3OC)N(C)[C@H]3[C@@](O)(C(=O)OC)[C@H](OC(C)=O)[C@]5(CC)C=CCN6CC[C@]43[C@@H]65)C2)C1` [VINBLASTINE] the logP [1] was 3.9.

`C[C@]12CC[C@@H]3c4ccc(OC(=O)N(CCCl)CCCl)cc4CC[C@H]3[C@@H]1CC[C@@H]2O` [ESTRAMUSTINE] showed a logP (physchem) of 5.7.

For `C=C(c1ccc(C(=O)O)cc1)c1cc2c(cc1C)C(C)(C)CCC2(C)C` [BEXAROTENE], the logP (physchem) was 6.9.

In the case of `CN(C)c1nc(N(C)C)nc(N(C)C)n1` [ALTRETAMINE], the logP (physchem) is reported as 1.7.

In the case of `NCC(=O)CCC(=O)O` [AMINOLEVULINIC ACID], the logP (physchem) is reported as -1.5.

With `Nc1nc2nc[nH]c2c(=S)[nH]1` [THIOGUANINE] the logP (physchem) was -0.7.

With `COc1cccc2c1C(=O)c1c(O)c3c(c(O)c1C2=O)C[C@@](O)(C(=O)CO)C[C@@H]3O[C@H]1C[C@H](N)[C@@H](O)[C@H](C)O1` [EPIRUBICIN] the logP (physchem) was -0.5.

Compound `CN(N=O)C(=O)N[C@@H](C=O)[C@@H](O)[C@H](O)[C@H](O)CO` [STREPTOZOCIN] has a logP (physchem) of -1.7.

`O=C1c2c(O)ccc(O)c2C(=O)c2c(NCCNCCO)ccc(NCCNCCO)c21` [MITOXANTRONE] gave a logP (physchem) of -3.1.

With `O=C1CN2Cc3c(ccc(Cl)c3Cl)N=C2N1` [ANAGRELIDE] the logP (physchem) was 2.4.

For `COc1cccc2c1C(=O)c1c(O)c3c(c(O)c1C2=O)C[C@@](O)(C(C)=O)C[C@@H]3O[C@H]1C[C@H](N)[C@H](O)[C@H](C)O1` [DAUNORUBICIN], the logP (physchem) was 0.1.

Work on `O=NN(CCCl)C(=O)NC1CCCCC1` [LOMUSTINE] yielded a logP (physchem) of 3.

With `Cc1ccc(-c2cc(C(F)(F)F)nn2-c2ccc(S(N)(=O)=O)cc2)cc1` [CELECOXIB] the logP (physchem) was 3.9.

For `CCCCCOC(=O)Nc1nc(=O)n([C@@H]2O[C@H](C)[C@@H](O)[C@H]2O)cc1F` [CAPECITABINE], the logP (physchem) was 0.4.

`CC[C@@]1(O)C(=O)OCc2c1cc1n(c2=O)Cc2cc3c(CN(C)C)c(O)ccc3nc2-1` [TOPOTECAN] showed a logP (physchem) of 0.8.

`CC(=O)O[C@H]1C(=O)[C@@]2(C)[C@H]([C@H](OC(=O)c3ccccc3)[C@]3(O)C[C@H](OC(=O)[C@H](O)[C@@H](NC(=O)c4ccccc4)c4ccccc4)C(C)=C1C3(C)C)[C@]1(OC(C)=O)CO[C@@H]1C[C@@H]2O` [PACLITAXEL] showed a logP (physchem) of 3.

`Clc1ccc(C(c2ccccc2Cl)C(Cl)Cl)cc1` (configuration not stated) [MITOTANE] gave a logP (physchem) of 6.

With `O=C(CCBr)N1CCN(C(=O)CCBr)CC1` [PIPOBROMAN] the logP (physchem) was 1.1.

`Cc1nc2ccc(CN(C)c3ccc(C(=O)N[C@@H](CCC(=O)O)C(=O)O)s3)cc2c(=O)[nH]1` [RALTITREXED] showed a logP (physchem) of -1.2.
